Assay results taken from the supplement of paper PMC11061612.

Assays:
[1] = tested on: RMG-I (Ovarian Carcinoma); test: combination Emax (second highest fraction inhibited in the dose matrix, 72 h); higher = more inhibition; extreme values may be limits of the assay
In short: (§1)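 Bliss excess equals the observed combination effect minus the expected value EA + EB − EA·EB, where EA and EB are the effects of each agent alone. Combination Emax is the second-highest inhibition within the matrix. Inhibition was scaled from CellTiter-Glo 2.0 luminescence, with 0 set by vehicle wells and 1 by blank wells, after 72 hours of two-drug dosing of cells plated in 1536-well plates.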

[2] = tested on: HCC-44 (Lung Adenocarcinoma); test: as above
In short: as §1

[3] = tested on: EB-3 (Burkitt's Lymphoma); test: as above
In short: as §1

[4] = tested on: COLO-684 (Endometrial Carcinoma); test: as above
In short: as §1

KYM-1 (Rhabdomyosarcoma) [5] = test: as above
In short: as §1

[6] = tested on: CML-T1 (Chronic Myelogenous Leukemia); test: as above
In short: as §1

[7] = tested on: NKM-1 (Acute Myeloid Leukemia); test: as above
In short: as §1

[8] = tested on: SK-MM-2 (Plasma Cell Myeloma); test: as above
In short: as §1

[9] = tested on: SW684 (Other Solid Carcinomas); test: as above
In short: as §1

[10] = tested on: FLO-1 (Esophageal Adenocarcinoma); test: as above
In short: as §1

[11] = tested on: KYSE-70 (Esophageal Squamous Cell Carcinoma); test: as above
In short: as §1

[12] = tested on: Becker (Low Grade Glioma); test: as above
In short: as §1

[13] = tested on: OV-90 (Ovarian Carcinoma); test: as above
In short: as §1

CHL-1 (Melanoma) [14] = test: as above
In short: as §1

[15] = tested on: NCI-H810 (Non-Small Cell Lung Carcinoma); test: as above
In short: as §1

[16] = tested on: PC-14 (Lung Adenocarcinoma); test: as above
In short: as §1

[17] = tested on: LAMA-84 (Chronic Myelogenous Leukemia); test: as above
In short: as §1

[18] = tested on: NCI-H1755 (Lung Adenocarcinoma); test: as above
In short: as §1

[19] = tested on: LOUCY (T-Lymphoblastic Leukemia); test: as above
In short: as §1

[20] = tested on: PANC-02-03 (Pancreatic Carcinoma); test: as above
In short: as §1

[21] = tested on: RMG-I (Ovarian Carcinoma); test: Bliss excess, mean over the matrix (fraction); higher = more synergy
In short: as §1

[22] = tested on: HCC-44 (Lung Adenocarcinoma); test: as above
In short: as §1

[23] = tested on: EB-3 (Burkitt's Lymphoma); test: as above
In short: as §1

[24] = tested on: COLO-684 (Endometrial Carcinoma); test: as above
In short: as §1

KYM-1 (Rhabdomyosarcoma) [25] = test: as above
In short: as §1

[26] = tested on: CML-T1 (Chronic Myelogenous Leukemia); test: as above
In short: as §1

[27] = tested on: NKM-1 (Acute Myeloid Leukemia); test: as above
In short: as §1

[28] = tested on: SK-MM-2 (Plasma Cell Myeloma); test: as above
In short: as §1

[29] = tested on: SW684 (Other Solid Carcinomas); test: as above
In short: as §1

[30] = tested on: FLO-1 (Esophageal Adenocarcinoma); test: as above
In short: as §1

[31] = tested on: KYSE-70 (Esophageal Squamous Cell Carcinoma); test: as above
In short: as §1

[32] = tested on: Becker (Low Grade Glioma); test: as above
In short: as §1

[33] = tested on: OV-90 (Ovarian Carcinoma); test: as above
In short: as §1

CHL-1 (Melanoma) [34] = test: as above
In short: as §1

[35] = tested on: NCI-H810 (Non-Small Cell Lung Carcinoma); test: as above
In short: as §1

[36] = tested on: PC-14 (Lung Adenocarcinoma); test: as above
In short: as §1

[37] = tested on: LAMA-84 (Chronic Myelogenous Leukemia); test: as above
In short: as §1

[38] = tested on: NCI-H1755 (Lung Adenocarcinoma); test: as above
In short: as §1

[39] = tested on: LOUCY (T-Lymphoblastic Leukemia); test: as above
In short: as §1

[40] = tested on: PANC-02-03 (Pancreatic Carcinoma); test: as above
In short: as §1

| Structure (SMILES) | combination Emax [1] | combination Emax [2] | combination Emax [3] | combination Emax [4] | combination Emax (KYM-1 (Rhabdomyosarcoma) [5]) | combination Emax [6] | combination Emax [7] | combination Emax [8] | combination Emax [9] | combination Emax [10] | combination Emax [11] | combination Emax [12] | combination Emax [13] | combination Emax (CHL-1 (Melanoma) [14]) | combination Emax [15] | combination Emax [16] | combination Emax [17] | combination Emax [18] | combination Emax [19] | combination Emax [20] | Bliss excess [21] | Bliss excess [22] | Bliss excess [23] | Bliss excess [24] | Bliss excess (KYM-1 (Rhabdomyosarcoma) [25]) | Bliss excess [26] | Bliss excess [27] | Bliss excess [28] | Bliss excess [29] | Bliss excess [30] | Bliss excess [31] | Bliss excess [32] | Bliss excess [33] | Bliss excess (CHL-1 (Melanoma) [34]) | Bliss excess [35] | Bliss excess [36] | Bliss excess [37] | Bliss excess [38] | Bliss excess [39] | Bliss excess [40] |
| --- | --- | --- | --- | --- | --- | --- | --- | --- | --- | --- | --- | --- | --- | --- | --- | --- | --- | --- | --- | --- | --- | --- | --- | --- | --- | --- | --- | --- | --- | --- | --- | --- | --- | --- | --- | --- | --- | --- | --- | --- |
| N#Cc1cnc(Nc2cc(NC[C@H]3CNCCO3)c(C(F)(F)F)cn2)cn1 [SRA737] + Nc1ccn([C@@H]2O[C@H](CO)[C@@H](O)C2(F)F)c(=O)n1 [Gemcitabine] (first compound max 10 µM, 7x7, partner max 0.3 µM) | 0.402 | 0.853 | 0.806 | 0.657 | 1 | 1 | 1 | 0.708 | 0.494 | 0.908 | 0.643 | 0.747 | 0.609 | 0.803 | 0.779 | 0.806 | 0.973 | 0.775 | 0.96 | 0.595 | -0.042 | 0.149 | 0.125 | -0.0824 | -0.0294 | 0.0539 | 0.0289 | 0.112 | 0.0294 | 0.124 | 0.0297 | 0.0323 | -0.0752 | 0.0859 | 0.112 | 0.0155 | 0.039 | 0.0184 | 0.127 | 0.0122 |
| N#Cc1cnc(Nc2cc(NC[C@H]3CNCCO3)c(C(F)(F)F)cn2)cn1 [SRA737] + CCc1c2c(nc3ccc(O)cc13)-c1cc3c(c(=O)n1C2)COC(=O)[C@]3(O)CC [SN-38] (first compound max 10 µM, 7x7, partner max 0.3 µM) | 0.484 | 0.904 | 0.828 | 0.878 | 0.945 | 1 | 0.995 | 0.776 | 0.459 | 0.815 | 0.683 | 0.865 | 0.519 | 0.807 | 0.829 | 0.816 | 0.953 | 0.871 | 0.952 | 0.674 | -0.0426 | 0.124 | -0.0157 | 0.0144 | -0.0207 | -0.0022 | -0.0365 | 0.014 | -0.0846 | 0.0593 | 0.0857 | -0.0297 | -0.0976 | 0.0724 | 0.0918 | 0.0164 | -0.023 | -0.0327 | 0.102 | -0.0673 |
| C[C@@H](Oc1cc(-c2cnn(C3CCNCC3)c2)cnc1N)c1c(Cl)ccc(F)c1Cl [Crizotinib] + CC1=C(C(=CC=C1)Cl)NC(=O)C2=CN=C(S2)NC3=CC(=NC(=N3)C)N4CCN(CC4)CCO [Dasatinib] (first compound max 10 µM, 7x7, partner max 2 µM) | 0.737 | 0.962 | 0.639 | 0.41 | 0.917 | 0.987 | 0.971 | 0.303 | 0.758 | 1 | 0.423 | 0.648 | 0.591 | 0.349 | 0.244 | 1 | 1 | 0.983 | 0.674 | 0.606 | 0.0034 | 0.101 | -0.0181 | -0.049 | -0.0389 | -0.0958 | -0.0197 | -0.0416 | 0.0215 | 0.0436 | -0.0068 | 0.1 | 0.0304 | -0.0401 | -0.0726 | 0.0183 | 0.0136 | 0.0591 | -0.0383 | -0.0328 |
| O=C(c1cc(Cc2n[nH]c(=O)c3ccccc23)ccc1F)N1CCN(C(=O)C2CC2)CC1 [Olaparib] + Cc1c2c(nn1C)CSCc1cc(n(C)n1)CSc1cc(c3ccccc3c1)OCCCc1c(C(=O)O)n(C)c3c-2c(Cl)ccc13 [AZD5991] (first compound max 10 µM, 7x7, partner max 1 µM) | 0.123 | 0.117 | 0.0218 | 0.224 | 0.832 | 0.832 | 1 | 0.111 | 0.0699 | 0.253 | 0.104 | 0.22 | 0.114 | 0.312 | 0.49 | 0.0956 | 0.223 | 0.18 | 0.234 | 0.128 | -0.0627 | -0.0267 | -0.0579 | -0.0104 | 0.0435 | -0.0255 | 0.0786 | -0.0093 | -0.0763 | -0.0102 | -0.032 | -0.0125 | -0.0554 | -0.0174 | -0.0578 | -0.0279 | -0.0136 | -0.0215 | -0.0086 | -0.0465 |
| C[C@@H](Nc1cc(F)cc(F)c1)c1cc(C(=O)N(C)C)cc2c(=O)cc(N3CCOCC3)oc12 [AZD8186] + CC(=O)c1c(C)c2cnc(Nc3ccc(N4CCNCC4)cn3)nc2n(C2CCCC2)c1=O [Palbociclib] (first compound max 10 µM, 7x7, partner max 10 µM) | 0.497 | 0.728 | 0.399 | 0.729 | 0.702 | 0.931 | 0.83 | 0.35 | 0.503 | 0.599 | 0.355 | 0.628 | 0.137 | 0.458 | 0.371 | 0.469 | 0.554 | 0.602 | 0.504 | 0.343 | 0.0104 | 0.0091 | 0.0129 | 0.0174 | -0.031 | -0.0045 | -0.0435 | 0.0299 | -0.0005 | 0.0479 | -0.0106 | 0.127 | -0.0541 | 0.0104 | -0.0224 | 0.0852 | 0.083 | 0.069 | 0.187 | -0.0157 |
| Cc1c2c(nn1C)CSCc1cc(n(C)n1)CSc1cc(c3ccccc3c1)OCCCc1c(C(=O)O)n(C)c3c-2c(Cl)ccc13 [AZD5991] + CS(=O)(=O)CCNCc1ccc(-c2ccc3ncnc(Nc4ccc(OCc5cccc(F)c5)c(Cl)c4)c3c2)o1 [Lapatinib] (first compound max 1 µM, 7x7, partner max 10 µM) | 0.532 | 0.352 | 0.6 | 0.421 | 0.589 | 0.24 | 0.995 | 0.115 | 0.177 | 0.537 | 0.177 | 0.277 | 0.247 | 0.835 | 0.261 | 0.963 | 0.165 | 0.755 | 0.688 | 0.368 | 0.0088 | -0.0301 | -0.0068 | -0.114 | 0.0243 | 0.0228 | -0.0148 | -0.0011 | -0.116 | -0.0454 | -0.0329 | -0.0011 | -0.0817 | 0.0766 | -0.0722 | 0.0203 | 0.0258 | -0.015 | 0.0351 | -0.0159 |
| C[C@@H]1COCCN1c1cc(C2([S@](C)(=N)=O)CC2)nc(-c2ccnc3[nH]ccc23)n1 [AZD6738] + C1CC(C1)(C(=O)[O-])C(=O)[O-].N.N.[Pt+2] [Carboplatin] (first compound max 10 µM, 7x7, partner max 10 µM) | 0.337 | 0.288 | 0.751 | 0.756 | 0.904 | 0.976 |  | 0.319 | 0.342 | 0.619 | 0.266 | 0.648 | 0.345 | 0.798 | 0.458 | 0.807 | 0.92 | 0.807 | 0.972 | 0.433 | -0.0502 | -0.0585 | -0.0876 | -0.0356 | 0.0183 | -0.031 | -0.0102 | -0.0045 | -0.0968 | -0.0416 | -0.0571 | -0.0224 | -0.0638 | -0.0178 | -0.116 | -0.0164 | -0.0368 | -0.0571 | 0.0054 | -0.0433 |
